Measured values reported in publication PMC6478823, “A suite of phenotypic assays to ensure pipeline diversity when prioritizing drug-like Cryptosporidium growth inhibitors” (Nature Communications, 2019).
Where two headings read alike, the source gives them in different places.

What was measured:
[1] = system: C. parvum DMC1 expression; assay: Sexual differentiation assay (DMC1 expression); type: cell-based, Cryptosporidium parvum; conditions: compound at asexual EC90, 48-72 h; for Asexual to sexual differentiation: Mean % DMC1 inhibition (normalized to host nuclei), Average: average of replicates; for Asexual to sexual differentiation: Mean % DMC1 inhibition (normalized to host nuclei), Replicate 1a: single replicate 1; for Asexual to sexual differentiation: Mean % DMC1 inhibition (normalized to host nuclei), Replicate 2a: single replicate 2
Text: We utilized DMC1 as a marker of C. parvum sexual development, and used the anti-DMC1 monoclonal antibody to develop a moderate-throughput high-content microscopy assay for characterizing anticryptosporidial compounds (Fig. 6a). […] Therefore, in order to enable numerical comparison of the ability of compounds to block sexual development with moderate throughput, we adopted a strategy of reporting the percent inhibition of DMC1 expression by the previously determined EC90 of each compound in the standard asexual development assay (Fig. 6c and Supplementary Table 2).
Fig. 6 Assay to measure asexual-to-sexual-stage conversion. a Schematic of the experimental approach. […] For b and c the mean and SD combined from at least two biological replicates with four technical replicates per experiment are shown. […] At given time points post-infection, infected cells were washed 3 times with PBS containing 111 mM of D-galactose, fixed for 15 min at room temperature with 4% paraformaldehyde in PBS, and permeabilized with 0.25% triton X-100 in PBS for 10 min at 37 °C. Cells were then washed 3 times with PBS and blocked at least overnight at 4 °C with 1% BSA in PBS (blocking buffer). Cells were stained with monoclonal antibody (1H10G7), either neat culture supernatant or 12.8 µg/mL of purified IgG in blocking buffer for 1 h at 37 °C, followed by 2 washes with PBS. Cells were then co-stained with a 1:500 dilution (4 µg/mL) of Alexa Fluor 568 goat anti-mouse IgG (Invitrogen, catalog# A-11004) and 1.33 µg/mL fluorescein-labeled Vicia villosa lectin (Vector Laboratories, catalog# FL-1231) diluted in blocking buffer for 1 h at 37 °C. Stains were then removed and 0.09 mM Hoechst 33258 (AnaSpec, catalog# AS-83219) also diluted in blocking buffer was added for another 15 min at 37 °C, followed by 2 PBS washes and imaging on a Nikon Eclipse Ti2000 epifluorescence microscope run with NIS-Elements Advanced Research software (Nikon, USA) and equipped with an EXi blue fluorescent microscopy camera (QImaging, Canada). For enumerating parasites, tiled 2 × 2 images with 15% overlapping edges were taken using a 40 × dry objective (0.7 NA), and for finer details, Z stack images were acquired using a 60 × oil objective (1.4 NA). Lectin positive cells in focus were first counted, followed by DMC1.
For compound dose-response studies, the same assay was performed in 384-well plates and imaged using a 20 × dry objective (NA = 0.45). Tiled 4 × 4 to 6 × 6 images were taken. Images were analyzed using ImageJ software and the custom macro provided in Supplementary Method 2.

C. parvum = assay: 48 h Cryptosporidium growth inhibition assay; type: cell-based, Cryptosporidium parvum; conditions: compound added 3 h post-infection, read at 48 h
Text: As a first step in developing specific Cryptosporidium mode of action assays, we conducted a series of light microscopy time-lapse and transmission electron microscopy (TEM) time course experiments in order to precisely define C. parvum development within the HCT-8 cell culture system. […] This synchronicity was exploited by modifying a previously developed high-content microscopy assay. These assay modifications enabled the evaluation of several key events within the life cycle: host cell invasion, intracellular replication, host cell egress and establishment of new parasitophorous vacuoles, and sexual differentiation. […] Since the methods all used automated liquid handling, imaging, and image analysis, the assay methods all incorporated nuclear staining to monitor host cell numbers and enable recognition of HCT-8 cell monolayer damage, for example as an artifact from a malfunctioning plate washer or from unanticipated cytotoxicity of the compounds.
Human ileocecal adenocarcinoma (HCT-8) cells were purchased from ATCC (catalog# CCL-244) and cultured in ATCC modified RPMI-1640 medium (Gibco, catalog# A10491–01), supplemented with 10% heat-inactivated fetal bovine serum (Sigma-Aldrich, catalog# 12306C) and 120 U/mL penicillin and 120 μg/mL streptomycin (Gibco, catalog# 15140-122) (culture media). […] For all experiments, HCT-8 cells between passages 9 and 39 were used. C. parvum (Iowa isolate) oocysts were purchased from Bunchgrass Farm (Deary, ID), stored at 4 °C and used within 5 months of collection from an infected calf. To induce excystation, oocysts were first treated with 10 mM hydrochloric acid for 10 min at 37 °C, spun at 14,000×g for 4.5 min at room temperature, treated with 2 mM sodium taurocholate for 10 min at 16 °C, spun as before, and resuspended in culture media for infection.
A modification of a previously reported immunofluorescence assay was used to determine the EC50 and EC90 of compounds[13]. HCT-8 cells were grown to ≥ 90% confluence in 384-well plates (Corning, catalog# 353962) and infected with 5500 oocysts per well after they were induced for excystation as described above. Different concentrations of compounds were added 3 h post-infection and plates were incubated for another 45 h in a 5% CO2 incubator at 37 °C. Wells were then washed 3 times with PBS containing 111 mM D-galactose (PBS-D-gal), fixed with 4% paraformaldehyde (PFA) in PBS for 15 min at room temperature, permeabilized with 0.25% Triton X-100 for 10 min at 37 °C, washed 3 times with PBS with 0.1% Tween 20, and blocked with 4% bovine serum albumin (BSA) in PBS for 2 h at 37 °C or 4 °C overnight. Parasitophorous vacuoles were stained with 1.33 µg/mL of fluorescein-labeled Vicia villosa lectin (Vector Laboratories, catalog# FL-1231) diluted in 1% BSA in PBS with 0.1% Tween 20 for 1 h at 37 °C, followed by addition of Hoechst 33258 (AnaSpec, catalog# AS-83219) at 0.09 mM diluted in water for another 15 min at 37 °C. Wells were then washed 5 times with PBS containing 0.1% Tween 20. A Nikon Eclipse Ti2000 epifluorescence microscope with an automated stage was programmed using NIS-Elements Advanced Research software (Nikon, USA) to focus on the center of each well and take a 3 × 3 or 6 × 6 composite image using an EXi blue fluorescence microscopy camera (QImaging, Canada) with a 20 × objective (NA = 0.45). Nuclei and parasite images were separately exported as.tif files and analyzed using macros developed on the ImageJ platform (National Institutes of Health)[13].

[2] = Cryptosporidium parvum, HCT-8, read-out: Regular 3 to 48 h assay in vitro EC90, C. parvum in HCT-8 cells
[3] = read-out: Regular 3 to 48 h assay in vitro EC90, C. parvum in HCT-8 cells

Row | Compound | Asexual to sexual differentiation: Mean % DMC1 inhibition (normalized to host nuclei), Average [1] [%] | Asexual to sexual differentiation: Mean % DMC1 inhibition (normalized to host nuclei), Replicate 1a [1] [%] | Asexual to sexual differentiation: Mean % DMC1 inhibition (normalized to host nuclei), Replicate 2a [1] [%] | EC90 (C. parvum; [2]) [µM] | EC90 (C. parvum; [3]) [µM] | Asexual to sexual differentiation: Mean % DMC1 inhibition (normalized to host nuclei), Replicate 3a ([1]; single replicate 3) [%]
1 | CC(=O)O[C@@]12CO[C@@H]1C[C@H](O)[C@@]1(C)C(=O)[C@H](O)C3=C(C)[C@@H](OC(=O)[C@H](O)[C@@H](NC(=O)OC(C)(C)C)c4ccccc4)C[C@@](O)([C@@H](OC(=O)c4ccccc4)[C@H]21)C3(C)C [Docetaxel] | 37.07 | 34.13 | 40.00 | 1 | – | –
2 | [H]/N=C(/NCCCCC)N/N=C/c1c[nH]c2ccc(OC)cc12 [Tegaserod] | 12.05 | 41.94 | -17.83 | 10.3 | – | –
3 | COc1ccc(Nc2nc(NCc3ccccc3Cl)c3ccccc3n2)cc1Cl [B-13] | 11.26 | 30.33 | -7.82 | – | 1.39 | –
4 | CCOc1ccc2cc(-c3nn(CC4CCN(C)CC4)c4ncnc(N)c34)ccc2n1 [BKI-1369] | 41.93 | -4.30 | 59.32 | – | 17.7 | 70.76
